Results reported in PMC5008228 (Journal of Parkinson's Disease, 2016).
Several values for one entry are separate records, joined by “and”; a condition that tells them apart may be missing. Equal values may be shown once.

Columns and labels:
[1] = Nilotinib pharmacokinetics in plasma by mass spectrometry; type: in vivo; conditions: human, po, unbound Nilotinib; for AUC: Plasma AUC; for Cmax: Plasma Cmax
PDD or DLB participants [2] = test: Unified Parkinson's Disease Rating Scale; type: in vivo, human; conditions: for UPDRS-I-IV score / UPDRS-III score: individual participants; for Average decrease in UPDRS-III (motor): week 24 compared to baseline
PDD or DLB participants [3] = test: Mini Mental State Examination; type: in vivo, human; conditions: 300 ng (sub-heading as printed) oral daily; for MMSE score, AVG: group AVG (Screening AVG 17); for MMSE score: individual participants

Question: Which AUC ([1]; 150 mg, 150 mg oral) does the source give for `Cc1cn(-c2cc(NC(=O)c3ccc(C)c(Nc4nccc(-c5cccnc5)n4)c3)cc(C(F)(F)F)c2)cn1` [Nilotinib] here?
Answer: 157 ng·h/mL

Question: And the Cmax ([1]; 150 mg, 150 mg oral)?
Answer: 55 nM

Question: And the AUC ([1]; 300 mg, 300 mg oral)?
Answer: 232 ng·h/mL

Question: What about the Cmax ([1]; 300 mg, 300 mg oral) of the same compound?
Answer: 86 nM

Question: What about the “UPDRS-III score, AVG” value (PDD or DLB participants [2]; 150 mg oral daily, Week-4, group AVG (Screening AVG 37.8)) of the same compound?
Answer: 29.4

Question: And the UPDRS-I-IV score (PDD or DLB participants [2]; 150 mg oral daily, Week-4)?
Answer: 54 and 103 and 43 and 71 and 50

Question: What about the UPDRS-III score (PDD or DLB participants [2]; 150 mg oral daily, Week-4) of the same compound?
Answer: 29 and 55 and 33 and 26

Question: And the “UPDRS-III score, AVG” value (PDD or DLB participants [2]; 150 mg oral daily, Week-8, group AVG (Screening AVG 37.8))?
Answer: 35.6

Question: And the “UPDRS-I-IV score, AVG” value (PDD or DLB participants [2]; 150 mg oral daily, Week-8, group AVG (Screening AVG 72.60))?
Answer: 69.00

Question: And the UPDRS-I-IV score (PDD or DLB participants [2]; 150 mg oral daily, Week-8)?
Answer: 57 and 76 and 63 and 45

Question: What about the UPDRS-III score (PDD or DLB participants [2]; 150 mg oral daily, Week-8) of the same compound?
Answer: 32 and 56 and 39 and 28 and 23

Question: And the “UPDRS-III score, AVG” value (PDD or DLB participants [2]; 150 mg oral daily, Week-12, group AVG (Screening AVG 37.8))?
Answer: 36.6

Question: And the “UPDRS-I-IV score, AVG” value (PDD or DLB participants [2]; 150 mg oral daily, Week-12, group AVG (Screening AVG 72.60))?
Answer: 69.40

Question: What about the UPDRS-I-IV score (PDD or DLB participants [2]; 150 mg oral daily, Week-12) of the same compound?
Answer: 56 and 107 and 77 and 60 and 47

Question: And the UPDRS-III score (PDD or DLB participants [2]; 150 mg oral daily, Week-12)?
Answer: 32 and 59 and 40 and 30 and 22

Question: What about the “UPDRS-III score, AVG” value (PDD or DLB participants [2]; 150 mg oral daily, Week-16, group AVG (Screening AVG 37.8)) of the same compound?
Answer: 38

Question: What about the “UPDRS-I-IV score, AVG” value (PDD or DLB participants [2]; 150 mg oral daily, Week-16, group AVG (Screening AVG 72.60)) of the same compound?
Answer: 70.20

Question: What about the UPDRS-I-IV score (PDD or DLB participants [2]; 150 mg oral daily, Week-16) of the same compound?
Answer: 58 and 107 and 80 and 63 and 43

Question: And the UPDRS-III score (PDD or DLB participants [2]; 150 mg oral daily, Week-16)?
Answer: 33 and 59 and 43 and 22

Question: And the “UPDRS-III score, AVG” value (PDD or DLB participants [2]; 150 mg oral daily, Week-20, group AVG (Screening AVG 37.8))?
Answer: 36.2

Question: What about the “UPDRS-I-IV score, AVG” value (PDD or DLB participants [2]; 150 mg oral daily, Week-20, group AVG (Screening AVG 72.60)) of the same compound?
Answer: 67.80

Question: And the UPDRS-I-IV score (PDD or DLB participants [2]; 150 mg oral daily, Week-20)?
Answer: 53 and 83 and 57 and 38

Question: And the UPDRS-III score (PDD or DLB participants [2]; 150 mg oral daily, Week-20)?
Answer: 29 and 60 and 42 and 31 and 19

Question: What about the “UPDRS-III score, AVG” value (PDD or DLB participants [2]; 150 mg oral daily, Week-24, group AVG (Screening AVG 37.8)) of the same compound?
Answer: 34.4

Question: And the “UPDRS-I-IV score, AVG” value (PDD or DLB participants [2]; 150 mg oral daily, Week-24, group AVG (Screening AVG 72.60))?
Answer: 65.60

Question: What about the UPDRS-I-IV score (PDD or DLB participants [2]; 150 mg oral daily, Week-24) of the same compound?
Answer: 44 and 83 and 53 and 40

Question: And the UPDRS-III score (PDD or DLB participants [2]; 150 mg oral daily, Week-24)?
Answer: 23 and 60 and 42 and 29 and 18

Question: And the “Average decrease in UPDRS I-IV” value (PDD or DLB participants [2]; 150 mg oral daily, at 6 months)?
Answer: 7 points

Question: And the “Average decrease in UPDRS-III (motor)” value (PDD or DLB participants [2]; 150 mg oral daily)?
Answer: 3.4 points

Question: What about the “UPDRS-III score, AVG” value (PDD or DLB participants [2]; 300 mg oral daily, Week-4, group AVG (Screening AVG 30.6)) of the same compound?
Answer: 28

Question: What about the “UPDRS-I-IV score, AVG” value (PDD or DLB participants [2]; 300 mg oral daily, Week-4, group AVG (Screening AVG 62.5)) of the same compound?
Answer: 60.8

Question: What about the UPDRS-I-IV score (PDD or DLB participants [2]; 300 mg oral daily, Week-4) of the same compound?
Answer: 31 and 45 and 21 and 49 and 116 and 103

Question: What about the UPDRS-III score (PDD or DLB participants [2]; 300 mg oral daily, Week-4) of the same compound?
Answer: 11 and 14 and 7 and 22 and 67 and 47

Question: What about the “UPDRS-III score, AVG” value (PDD or DLB participants [2]; 300 mg oral daily, Week-8, group AVG (Screening AVG 30.6)) of the same compound?
Answer: 28

Question: And the “UPDRS-I-IV score, AVG” value (PDD or DLB participants [2]; 300 mg oral daily, Week-8, group AVG (Screening AVG 62.5))?
Answer: 60.3

Question: What about the UPDRS-I-IV score (PDD or DLB participants [2]; 300 mg oral daily, Week-8) of the same compound?
Answer: 28 and 41 and 25 and 45 and 118 and 105

Question: And the UPDRS-III score (PDD or DLB participants [2]; 300 mg oral daily, Week-8)?
Answer: 9 and 11 and 18 and 70 and 49

Question: And the “UPDRS-III score, AVG” value (PDD or DLB participants [2]; 300 mg oral daily, Week-12, group AVG (Screening AVG 30.6))?
Answer: 26.6

Question: What about the “UPDRS-I-IV score, AVG” value (PDD or DLB participants [2]; 300 mg oral daily, Week-12, group AVG (Screening AVG 62.5)) of the same compound?
Answer: 57.3

Question: And the UPDRS-I-IV score (PDD or DLB participants [2]; 300 mg oral daily, Week-12)?
Answer: 26 and 41 and 19 and 46 and 115 and 97

Question: And the UPDRS-III score (PDD or DLB participants [2]; 300 mg oral daily, Week-12)?
Answer: 9 and 11 and 8 and 18 and 67 and 47

Question: What about the “UPDRS-III score, AVG” value (PDD or DLB participants [2]; 300 mg oral daily, Week-16, group AVG (Screening AVG 30.6)) of the same compound?
Answer: 27.8

Question: What about the “UPDRS-I-IV score, AVG” value (PDD or DLB participants [2]; 300 mg oral daily, Week-16, group AVG (Screening AVG 62.5)) of the same compound?
Answer: 58.8

Question: And the UPDRS-I-IV score (PDD or DLB participants [2]; 300 mg oral daily, Week-16)?
Answer: 33 and 46 and 17 and 49 and 113 and 95

Question: And the UPDRS-III score (PDD or DLB participants [2]; 300 mg oral daily, Week-16)?
Answer: 13 and 16 and 6 and 21 and 67 and 44

Question: And the “UPDRS-III score, AVG” value (PDD or DLB participants [2]; 300 mg oral daily, Week-20, group AVG (Screening AVG 30.6))?
Answer: 26.8

Question: And the “UPDRS-I-IV score, AVG” value (PDD or DLB participants [2]; 300 mg oral daily, Week-20, group AVG (Screening AVG 62.5))?
Answer: 55.3

Question: And the UPDRS-I-IV score (PDD or DLB participants [2]; 300 mg oral daily, Week-20)?
Answer: 23 and 41 and 16 and 54 and 106 and 92

Question: And the UPDRS-III score (PDD or DLB participants [2]; 300 mg oral daily, Week-20)?
Answer: 7 and 16 and 21 and 69 and 41

Question: What about the “UPDRS-III score, AVG” value (PDD or DLB participants [2]; 300 mg oral daily, Week-24, group AVG (Screening AVG 30.6)) of the same compound?
Answer: 27

Question: What about the “UPDRS-I-IV score, AVG” value (PDD or DLB participants [2]; 300 mg oral daily, Week-24, group AVG (Screening AVG 62.5)) of the same compound?
Answer: 51.6

Question: What about the UPDRS-I-IV score (PDD or DLB participants [2]; 300 mg oral daily, Week-24) of the same compound?
Answer: 20 and 28 and 15 and 45 and 107 and 95

Question: What about the UPDRS-III score (PDD or DLB participants [2]; 300 mg oral daily, Week-24) of the same compound?
Answer: 9 and 12 and 6 and 21 and 70 and 44

Question: What about the “Average decrease in UPDRS-III (motor)” value (PDD or DLB participants [2]; 300 mg oral daily) of the same compound?
Answer: 3.6 points

Question: What about the “MMSE score, AVG” value (PDD or DLB participants [3]; Week-4) of the same compound?
Answer: 20.3

Question: What about the MMSE score (PDD or DLB participants [3]; Week-4) of the same compound?
Answer: 27 and 28 and 24 and 5 and 10

Question: What about the “MMSE score, AVG” value (PDD or DLB participants [3]; Week-8) of the same compound?
Answer: 18.1

Question: What about the MMSE score (PDD or DLB participants [3]; Week-8) of the same compound?
Answer: 28 and 23 and 24 and 2 and 8
